US11179348B2, “Combination comprising pterostilbene for the treatment of cancer” (FUNDACIÓN UNIVERSIDAD CATÓLICA DE VALENCIA SAN VICENTE …, priority 2015, dated 2021)

Assays:
human breast cancer = settings: 20 μM Pter, 24 h, in vitro; cited from earlier work
human melanoma = test: Effect of pterostilbene on human melanoma in vivo (growth, Ki-67, TUNEL, nuclear Nrf2)
Procedure: Animals, Tumor Growth, and In Vivo Administration of Pter.
Female nu/nu nude mice (6-8 weeks; Charles Rivers Laboratories, Wilmington, Mass.) were fed ad libitum on a standard diet (Harlan Teklad Animal Diets & Bedding, Madison, Wis.). Mice were kept on a 12-h-light/12-h-dark cycle with the room temperature at 22° C. […] For cancer xenograft experiments, mice were inoculated s.c. with 10×10^6 cancer cells per mouse. Tumor volume was calculated based on two dimensions, measured using calipers, and was expressed in mm^3 according to V=0.5a×b^2, where a and b are the long and the short diameters of the tumor, respectively. For histological analysis xenograft samples were first fixed in 4% formaldehyde, paraffin embedded, and stained as indicated below. Mice were monitored after inoculation, and tumor measurements were taken every 2 days. For pharmacokinetic and treatment studies Pterostilbene (Green Molecular S. L., Paterna, Spain) [dissolved in DMSO:ethanol (2:1), 50 mg Pter/ml] was administered i.v. through the jugular vein (where, previously, a permanent catheter was surgically fixed). Administration was slowly performed during 1-2 min.
Monoclonal mouse anti-human HMB45 antibodies (Abcam, Cambridge, UK) were used for immunohistochemical detection of melanoma cells. For that purpose, the tumors were fixed and paraffin embedded as described above. Immunohistochemical analysis was applied to tissue slices (5 μm thick) following the standard methodology recommended by Abcam. A horseradish peroxidase-conjugated goat anti-mouse polyclonal (Abcam) was used as secondary antibody.
Monoclonal mouse anti-human Ki-67 (Dako, Sant Cugat del Vallés, Spain) were used for immunohistochemical detection of the tumor growing fraction. Immunohistochemical analysis was applied to tissue slices (5 μm thick) following the standard methodology recommended by Dako. A biotin-conjugated goat anti-rabbit polyclonal (Dako) was used as secondary antibody.
DNA strand breaks in apoptotic cells were assayed by using a direct TUNEL labeling assay (Boehringer, Mannheim, Germany) and fluorescence microscopy following manufacturer's methodology.
Nrf2 Gene Transfer and Measurement.
The Tet-Off Advanced Inducible Gene Expression System (Clontech, Palo Alto, Calif.) was used to insert the human Nrf2 gene and for transfection into melanoma cells following manufacturer's instructions. Tet-off cells stably expressed Tet-regulated pTRE-Tight-Nrf2 giving up to an increased Nrf2 gene expression (Tet-Nrf2 cells). To suppress Nrf2 protein levels Tet-Nrf2 cells were cultured in the presence of 2 mg tetracycline (Sigma)/10^6 cells. The NE-PER extraction kit from Thermo Scientific (Rockford, Ill.) was used for nuclear protein extraction according to the manufacturer's instructions. The protein content was determined by the Pierce BCA protein assay. The antibodies (mouse monoclonal primary antibodies) against Nrf2 were purchased from Abcam. A total of 50 mg of protein was boiled in Laemmli buffer and resolved by 12.0% SDS-PAGE. Proteins were transferred to a nitrocellulose membrane (Hybond C-extra, GE Healthcare Europe GmbH, Barcelona, Spain) and subjected to Western blotting. The blotted membrane was blocked for 1 h at room temperature in Tris-buffered saline (TBS) containing 5% (w/v) membrane-blocking reagent (non-fat dried milk). All antibody incubations were carried out at room temperature in TBS containing 1% membrane-blocking reagent. […] Protein bands were quantified using laser densitometry.

[1] = tumors of Pter-treated melanoma-bearing mice

Question: With COc1cc(/C=C/c2ccc(O)cc2)cc(OC)c1 [Pter, trans-3,5-dimethoxy-4′-hydroxystilbene] as the compound, how does the “decrease in tumor cell viability” value (human breast cancer) read?
Answer: Its value is roughly 25%.

Question: What about the “melanoma growth inhibition at lower dose” value (human melanoma; 20 mg/kg vs 30 mg/kg) of the same compound?
Answer: The value was “less effective”.

Question: And the “melanoma growth inhibition at higher dose” value (human melanoma; 40 mg/kg vs 30 mg/kg)?
Answer: Its value is “no further inhibition”.

Question: And the “nuclear Nrf2 in melanoma cells” value (human melanoma; in vivo Pter-treated vs control melanoma-bearing mice (FIG. 4C))?
Answer: The value was “decreased”.

Question: And the “apoptotic cell death in tumors (TUNEL)” value (human melanoma; [1])?
Answer: Its value is “increase”.

Question: And the “melanoma cell proliferation in tumors (Ki-67 staining)” value (human melanoma; [1])?
Answer: The value was “decrease”.
